Here are results for 33 molecules from patent US20260083851A1 (AVILAR THERAPEUTICS, INC., priority 2022, published 2026).

In this assay the target is T1, ASGP receptor (biotinylated ASGPR) (Homo sapiens, UniProt P07306).
T1 construct: biotin (biotinylated)
T1 sequence (P07306 1-291): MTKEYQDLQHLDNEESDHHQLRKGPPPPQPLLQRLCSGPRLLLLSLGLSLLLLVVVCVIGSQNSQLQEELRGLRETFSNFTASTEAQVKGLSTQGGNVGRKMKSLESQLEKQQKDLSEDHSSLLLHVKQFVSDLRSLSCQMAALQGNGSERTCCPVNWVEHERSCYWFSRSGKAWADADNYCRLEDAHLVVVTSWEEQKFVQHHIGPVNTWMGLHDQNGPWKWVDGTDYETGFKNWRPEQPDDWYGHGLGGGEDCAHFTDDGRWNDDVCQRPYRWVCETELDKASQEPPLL
The class given is binding. The note with it: SPR.

Where [1] appears, read: Biacore 8K, 25° C., Table 1C, read-out: ASGPR KD.
Where [2] appears, read: Biacore 8K, 25° C., Table 1E, read-out: ASGPR KD.
Setting [3] is: Biacore 8K, 25° C., Table 1B, read-out: ASGPR Kd.
Where [4] appears, read: Biacore 8K, 25° C., Table 1A, read-out: ASGPR KD.
Setting [5] is: Biacore 8K, 25° C., Table 1D, read-out: ASGPR KD.

The structures appear in SMILES notation. Read-outs that look alike come from different tables or passages of the source. Where only a bound is given, the exact number is not on record here.

As usually defined, the Kd is the free concentration of one partner at which half of the binding sites on the other are occupied at equilibrium, for simple one-to-one binding. Take `[O-][S+](C[C@H]1OC[C@H](Oc2cccc(C(F)(F)F)n2)[C@@H](O)[C@H]1O)c1ccccc1` (stereo partly drawn) [A311]: the Kd under setting [1] was < 10 µM.

Regarding `C[C@H]1O[C@H](CCc2ccncc2)[C@H](Oc2cccc(C(F)(F)F)n2)[C@@H](O)[C@H]1O` [A439], the dissociation constant (Kd) under setting [2] was < 10 µM. As to `CC(C)(C)OC(=O)N1CCC(n2cc([C@H]3OC[C@H](Oc4cccc(C(F)(F)F)n4)[C@@H](O)[C@H]3O)nn2)CC1` [A220, tert-butyl 4-(4-((2R,3R,4S,5S)-3,4-dihydroxy-5-((6-(trifluoromethyl)pyridin-2-yl)oxy)tetrahydro-2H-pyran-2-yl)-1H-1,2,3-triazol-1-yl)piperidine-1-carboxylate], the Kd under setting [1] is < 10 µM.

For the molecule `O[C@@H]1[C@@H](Nc2ncnn3cccc23)CNC[C@@H]1O` [A400], the Kd (Biacore 8K, 25° C., Table 1D, numeric bound, read-out: ASGPR KD) was > 30 µM.

As to `O[C@@H]1[C@@H](Nc2cncc(C(F)(F)F)n2)CNC[C@@H]1O` [A150, (3S,4R,5S)-5-((6-(trifluoromethyl)pyrazin-2-yl)amino)piperidine-3,4-diol], under setting [3], the Kd is < 10 µM.

Turning to `OC[C@H]1OC[C@H](Oc2cccc(C(F)(F)F)n2)[C@@H](O)[C@H]1O` [A142, (2R,3R,4S,5S)-2-(hydroxymethyl)-5-((6-(trifluoromethyl)pyridin-2-yl)oxy)tetrahydro-2H-pyran-3,4-diol], the Kd under setting [3] is < 10 µM.

Turning to `O=C(O)CCCCCNC(=O)NC[C@H]1OC[C@H](Nc2cncc(C(F)(F)F)n2)[C@@H](O)[C@H]1O` [A115, 6-(3-(((2R,3R,4R,5S)-3,4-dihydroxy-5-((6-(trifluoromethyl)pyrazin-2-yl)amino)tetrahydro-2H-pyran-2-yl)methyl)ureido)hexanoic acid], the Kd under setting [4] was < 10 µM. Take `COC(=O)c1ccc(C#C[C@H]2O[C@H](C)[C@H](O)[C@H](O)[C@H]2Oc2cccc(C(F)(F)F)n2)nn1` [A321]: the Kd under setting [1] is < 10 µM. Same read-out and setting: the value for `C[C@H]1O[C@H](c2ncncc2F)[C@H](Oc2cccc(C(F)(F)F)n2)[C@@H](O)[C@H]1O` [A338] was < 10 µM. For the molecule `C[C@H]1O[C@H](C(C)(C)O)[C@H](Oc2cccc(C(F)(F)F)n2)[C@@H](O)[C@H]1O` [A433], the equilibrium dissociation constant (Kd) under setting [2] was < 10 µM. Consider `OC[C@H]1O[C@@H](c2ccccc2)[C@H](Oc2cccc(C(F)(F)F)n2)[C@@H](O)[C@H]1O` [A208, (2R,3R,4S,5R,6S)-2-(hydroxymethyl)-6-phenyl-5-((6-(trifluoromethyl)pyridin-2-yl)oxy)tetrahydro-2H-pyran-3,4-diol], for which, under “Biacore 8K, 25° C., Table 1C, numeric bound, read-out: ASGPR KD”, the dissociation constant (Kd) is > 30 µM. As to `O=C(O)c1cnc(C(=O)NC[C@H]2OC[C@H](Nc3cncc(C(F)(F)F)n3)[C@@H](O)[C@H]2O)nc1` [A84, 2-((((2R,3R,4R,5S)-3,4-dihydroxy-5-((6-(trifluoromethyl)pyrazin-2-yl)amino)tetrahydro-2H-pyran-2-yl)methyl)carbamoyl)pyrimidine-5-carboxylic acid], the Kd under setting [4] is < 10 µM. As to `O[C@@H]1[C@@H](Nc2cncc(C(F)(F)F)n2)CN(Cc2ccccc2)C[C@@H]1O` [A373], under setting [5], the Kd is < 10 µM.

Turning to `C[C@H]1O[C@H](c2cccc3ccccc23)[C@H](Oc2cccc(C(F)(F)F)n2)[C@@H](O)[C@H]1O` [A342], the Kd under setting [1] is < 10 µM.

`O[C@@H]1[C@H](O)[C@@H](Nc2cccc(C(F)(F)F)n2)CO[C@@H]1CN1CCCCC1` [A241]: under setting [1], the Kd is < 10 µM. Consider `O=C(OCc1ccccc1)N1C[C@H](Nc2cncc(C(F)(F)F)n2)[C@@H](O)[C@@H](O)C1` [A149, benzyl (3S,4R,5S)-3,4-dihydroxy-5-((6-(trifluoromethyl)pyrazin-2-yl)amino)piperidine-1-carboxylate], for which the Kd under setting [3] was < 10 µM. As to `O[C@@H]1[C@@H](Nc2cccc(C(F)(F)F)n2)CN(C2CCNCC2)C[C@@H]1O` [A396], the Kd under setting [5] is < 10 µM. In the case of `CC[C@]1(COc2ccc(C(=O)O)nn2)O[C@H](O)[C@H](NC(=O)C(F)(F)F)[C@@H](O)[C@H]1O` [A313], the Kd under setting [1] was < 10 µM. As for `O=C(NC[C@H]1OC[C@H](Nc2cncc(C(F)(F)F)n2)[C@@H](O)[C@H]1O)c1ccc2[nH]cnc2n1` [A69, N-(((2R,3R,4R,5S)-3,4-dihydroxy-5-((6-(trifluoromethyl)pyrazin-2-yl)amino)tetrahydro-2H-pyran-2-yl)methyl)-1H-imidazo[4,5-b]pyridine-5-carboxamide], under setting [4], the dissociation constant Kd is < 10 µM. As to `O[C@@H]1[C@H](O)[C@@H](Oc2cccc(C(F)(F)F)n2)CO[C@@H]1COc1cccnc1` [A301], the Kd under setting [1] is < 10 µM. On the same count and under the same terms, next, `O[C@@H]1[C@H](O)[C@@H](Oc2cccc(C(F)(F)F)n2)CO[C@@H]1COc1ccccc1` [A234, (2R,3R,4S,5S)-2-(phenoxymethyl)-5-((6-(trifluoromethyl)pyridin-2-yl)oxy)tetrahydro-2H-pyran-3,4-diol]: < 10 µM.

In the case of `O=C(NC[C@H]1OC[C@H](Nc2cncc(C(F)(F)F)n2)[C@@H](O)[C@H]1O)c1cncnc1` [A25, N-(((2R,3R,4R,5S)-3,4-dihydroxy-5-((6-(trifluoromethyl)pyrazin-2-yl)amino)tetrahydro-2H-pyran-2-yl)methyl)pyrimidine-5-carboxamide], the Kd under setting [4] is < 10 µM.

For `CC(O)[C@H]1O[C@H](C)[C@H](O)[C@H](O)[C@H]1Oc1cccc(C(F)(F)F)n1` (stereo partly drawn) [A339], the Kd under setting [1] was < 10 µM. Still for that read-out and setting: the value for `CC(C)(C)OC(=O)N1CCC2CN(C[C@H]3OC[C@H](Oc4cccc(C(F)(F)F)n4)[C@@H](O)[C@H]3O)CC2C1` (stereo partly drawn) [A271] was < 10 µM.

`Cc1nnc(N2C[C@H](Oc3cccc(C(F)(F)F)n3)[C@@H](O)[C@@H](O)C2)s1` [A351]: the Kd under setting [5] is < 10 µM. On to `O=C(NC[C@H]1OC[C@H](Nc2cncc(C(F)(F)F)n2)[C@@H](O)[C@H]1O)c1cnco1` [A48, N-(((2R,3R,4R,5S)-3,4-dihydroxy-5-((6-(trifluoromethyl)pyrazin-2-yl)amino)tetrahydro-2H-pyran-2-yl)methyl)oxazole-5-carboxamide], for which the Kd under setting [4] is < 10 µM. As to `O=C(O)c1cnc(OC[C@H]2OC[C@H](Nc3cncc(C(F)(F)F)n3)[C@@H](O)[C@H]2O)cn1` [A187, 5-(((2R,3R,4R,5S)-3,4-dihydroxy-5-((6-(trifluoromethyl)pyrazin-2-yl)amino)tetrahydro-2H-pyran-2-yl)methoxy)pyrazine-2-carboxylic acid], the Kd under setting [1] was < 10 µM.

Take `O[C@@H]1[C@@H](Nc2cncc(C(F)(F)F)n2)CN(c2ccc(C(F)(F)F)cn2)C[C@@H]1O` [A377]: the Kd under setting [5] was < 10 µM.

Consider `COc1cccc(N[C@H]2CO[C@H](CO)[C@H](O)[C@@H]2O)n1` [A164, (2R,3R,4R,5S)-2-(hydroxymethyl)-5-((6-methoxypyridin-2-yl)amino)tetrahydro-2H-pyran-3,4-diol], for which the Kd under setting [3] is < 10 µM. Turning to `CC(C)(C)OC(=O)N1CCC2(CC1)CN(C[C@H]1OC[C@H](Oc3cccc(C(F)(F)F)n3)[C@@H](O)[C@H]1O)C2` [A267], the Kd under setting [1] is < 10 µM. Take `OC[C@H]1NC[C@H](Nc2cncc(C(F)(F)F)n2)[C@@H](O)[C@H]1O` [A118]: under setting [4], the Kd was < 10 µM. Take `CC1(C)C(=O)c2ccc(-c3cnc(N4CCN5C(=O)N(CCOCCOCCOCC(=O)NC(COCCC(=O)NCCOCCOCCOCCOC[C@H]6OC[C@H](Nc7cncc(C(F)(F)F)n7)[C@@H](O)[C@H]6O)COCCC(=O)NCCOCCOCCOCCOC[C@H]6OC[C@H](Nc7cncc(C(F)(F)F)n7)[C@@H](O)[C@H]6O)C[C@@H]5C4)nc3)nc2N1Cc1cccnc1C#N` [compound 19]: under “Table 2, read-out: ASGPR SPR Binding KD”, the Kd was < 0.1 µM. For `O=C(OCc1ccccc1)N1CCC(c2cnc(OC[C@H]3OC[C@H](Nc4cncc(C(F)(F)F)n4)[C@@H](O)[C@H]3O)cn2)CC1` [A409], the Kd under setting [5] was < 10 µM.
